Assay results: patent US20260373132A1, “PERK INHIBITORHC-5404 IN COMBINATION WITH ANTI-PD-1 ANTIBODY AND/OR AN ANTIANGIOGENETIC AGENT FOR USE IN THE TREATMENT OF CANCER” (HIBERCELL, INC., priority 2022, published 2026)

What was measured:
[1] = test system: tumor vasculature of 786-O xenografts; assay: IHC of tumor vasculature in 786-O xenografts; type: in vivo, mouse
Description: (§1) Formalin-fixed paraffin-embedded samples were sectioned at 5 μm thickness and mounted on Superfrost Plus microscope slides (Fisher Scientific). All immunohistochemical (IHC) staining was performed on Bond Rx auto-stainer (Leica Biosystems) using the conventional TSA-amplified detection system. Primary antibodies used were as follows: α-CD31 (Abcam #ab182981), α-smooth muscle actin (SMA; Abcam #ab124964), α-Meca32 (Novus Biologicals #NB100-77668). TSA-conjugated Alexa488 and Alexa647 fluorophores from Invitrogen (#B40953 and #B40958) were used at 1:500 dilution. Slides were counterstained with DAPI and cover slipped using Mowiol antifade mounting media (Sigma #D2522).
(§2) Slides were imaged with Aperio Versa 200 (Leica Biosystems) whole-slide scanner using 10×/0.32NA objective, and the data were analyzed using custom-written macros in ImageJ/FIJI (NIH). Briefly, 150 μm of outer edges of the tumor sections were eliminated from the analysis. Gaussian-blurred DAPI channel was used to measure the area of the tissue. Scans of […] were processed with median filter to remove noise, then positive areas were measured with appropriate threshold levels. % positive area for each marker was calculated. CD31-SMA double positive areas were measured via image calculation of the binary images. One-way ANOVA and pair-wise comparisons were performed on the data using Prism GraphPad.
PERK is an adaptive stress response that links hypoxia and nutrient deprivation with proangiogenic signaling. The effect of HC-5404 on tumor vasculature when administered in combination with antiangiogenic VEGFR-TKIs was investigated.
As immature blood vessels mature, they develop a mural layer of cells that express smooth muscle actin (SMA), which encircles and stabilizes the maturing vessel. Co-staining for both CD31 and SMA was conducted to determine whether treatments were affecting mature or immature tumor blood vessels.
This example investigated the inhibition the effect of cabozantinib on the formation of new tumor vasculature and on pericytes following procedures analogous to those described above.

[2] = mouse body weight / tolerability; type: in vivo; conditions: for body weight loss: 786-O xenografts, single agent PO, 21 days (FIG. 26)
Description: (§3) Body weight and tumor volume were measured twice weekly. Tumor volume was calculated using the formula [tumor volume (mm^3)=π/6×length×width^2] and plotted as means+SEM. The percentage of tumor growth inhibition was calculated at the end of the study using the formula: […], if ΔT>0, ΔT, mean tumor volume of the drug-treated group on the observation day of the study—mean tumor volume of the drug-treated group on initial day of dosing; ΔC, mean tumor volume of the control group on the observation day of the study—mean tumor volume of the control group on initial day of dosing. Regression was calculated using the formula=100×ΔT/Tinitial, if ΔT<0. Animals with >50% regressions were partial responders. Animals with tumor volume of 0 (no measurable tumor) were considered as complete responders, and animals with <50% tumor regression and 30% growth over the baseline were considered as stable disease. Animals with tumors>30% increase over the baseline were considered progressive disease. The % change in body weight was calculated by the formula (body weight on observation day−body weight on initial day)/body weight on initial day×100%.

[3] = test system: RCC patient-derived xenografts (PDXs); assay: single-animal study in RCC PDX models; type: in vivo, mouse
From the text: For patient derived xenograft model generation, small pieces of neuroendocrine pancreatic cancers were implanted into female NSG mice (6-8 weeks of age), fragments of Huprime gastric cancers were implanted into female Balb/c nude mice and for a single animal trial in RCC PDX models, tumor fragments from selected RCC PDX models were implanted into mice unilaterally.
(§4) Once tumor tumors reached volume of typically 150-250 mm^3, animals were randomized by tumor volume into the treatment groups of 8 or 10 animals per group. In the single animal trial with RCC PDX models, only one animal per group was enrolled.
(§5) Body weight and tumor volume were measured twice weekly. Tumor volume was calculated using the formula [tumor volume (mm^3)=π/6×length×width^2] and plotted as means+SEM. The percentage of tumor growth inhibition was calculated at the end of the study using the formula: 100−[1−(ΔT/ΔC)], if ΔT>0, ΔT, mean tumor volume of the drug-treated group on the observation day of the study—mean tumor volume of the drug-treated group on initial day of dosing; ΔC, mean tumor volume of the control group on the observation day of the study—mean tumor volume of the control group on initial day of dosing. Regression was calculated using the formula=100×ΔT/Tinitial, if ΔT<0. Animals with >50% regressions were partial responders. […]

pPERK in 786-O tumors = assay: pPERK in 786-O tumor xenografts; type: in vivo, mouse; conditions: for pPERK accumulation in 786-O tumors: PD arm, 7 days of dosing, single agent; for pPERK levels in 786-O tumors: single agent PO, several dose levels, 21 days (FIG. 26)
786-O RCC xenograft = 786-O RCC xenograft tumor growth; type: in vivo, mouse; conditions: for effect on tumor volume: single agent, efficacy arms (FIG. 28)
Description: (§6) Xenograft RCC models were generated as follows: Female NOD.SCID mice (6-8 weeks of age) were injected with A498 RCC cells (5×10^6 cells/mouse), female Balb/c Nude mice (6-8 weeks old) were implanted with 786-O RCC cells (5×10^6 cells/mouse) or Caki-1 RCC cells (6×10^6 cells/mouse), female Athymic Nude-Foxn1nu mice (7-8 weeks of age) were implanted with MFE280 endometrial cells (10×10^6 cells/mouse). Cells were implanted into the flank of animals.
as §4, §3

[4] = test system: tumor vasculature and pericyte cells of 786-O xenografts progressed on axitinib; assay: IHC of tumor vasculature and pericytes in 786-O xenografts that progressed on axitinib; type: in vivo, mouse
Description: as §1, §2
After 14 days of treatments, 77 mice bearing the largest tumors were rerandomized into four PD arms (n=8), four efficacy arms (n=10), and 5 tumors sampled on day of rerandomization as a baseline. The remaining animals were removed from study.

[5] = test system: MFE280 endometrial cancer model; assay: MFE280 endometrial xenograft tumor growth; type: in vivo, mouse; conditions: single agent: HC-5404 30 mg/kg PO BID or lenvatinib 10 mg/kg QD (FIG. 77)
Description: as §6, §4
as §5, with “ΔT<0.” for “ΔT<0. Animals with >50% regressions were partial responders.”

A498 RCC xenograft = A498 RCC xenograft tumor growth; type: in vivo, mouse; conditions: single agent: HC-5404 30 mg/kg PO BID or sunitinib 20 mg/kg PO QD (FIG. 31)
Description: as §6, §4, §3

Caki-1 RCC xenograft = Caki-1 RCC xenograft tumor growth; type: in vivo, mouse; conditions: HC-5404 or sunitinib monotherapy, compared with A498 (FIG. 32)
Description: as §6, §4, §3

[6] = 7 days after rerandomization (FIG. 92)

CNC(=O)c1ccccc1Sc1ccc2c(/C=C/c3ccccn3)n[nH]c2c1 [axitinib]
proportion of Meca32 expressing vascular endothelial cells ([1]; axitinib study (FIG. 38, 39)): decreased | immature CD31+SMA− vessels ([1]; axitinib study (FIG. 39)): decreased | mature CD31+SMA+ cells ([1]; axitinib study (FIG. 39)): did not affect | body weight loss [2]: no treatment-associated body weight loss was observed | partial responses (PRs) among models ([3]; 15 RCC PDX models, 28 days, PR: regression >50% vs baseline (FIG. 35)): 1/15 | sensitivity of VHLwt models to axitinib ([3]; three of the VHLwt models): decreased sensitivity to axitinib | pPERK accumulation in 786-O tumors (pPERK in 786-O tumors): induced pPERK accumulation | pPERK levels in 786-O tumors (pPERK in 786-O tumors): dose-dependent increases in pPERK | effect on tumor volume (786-O RCC xenograft): modest effects on tumor volume | proportion of cells expressing CD31 [4, 6]: decreased by axitinib | proportion of smooth muscle actin (SMA) [4, 6]: decreased | number of Meca32+ and CD31+ cells ([4]; FIG. 41, 42): decreased | MCAM+ cells ([4]; FIG. 43, 44): decreased by axitinib

COc1cc2nccc(Oc3ccc(NC(=O)C4(C(=O)Nc5ccc(F)cc5)CC4)cc3)c2cc1OC [cabozantinib]
immature vasculature (CD31+SMA− cells) ([1]; cabozantinib study (FIG. 54, 55)): near complete loss of immature vasculature | body weight loss [2]: no treatment-associated body weight loss was observed | mouse body weight ([2]; 786-O, HC-5404 3, 10, 30 mg/kg BID and/or cabozantinib 30 mg/kg QD (FIG. 53)): did not affect mouse body weight | pPERK accumulation in 786-O tumors (pPERK in 786-O tumors): induced pPERK accumulation | pPERK levels in 786-O tumors (pPERK in 786-O tumors): dose-dependent increases in pPERK | partial responses (786-O RCC xenograft; cabozantinib 30 mg/kg QD alone or with HC-5404 10 or 30 mg/kg BID (each group)): 2/8 | tumor response (786-O RCC xenograft; cabozantinib 30 mg/kg QD monotherapy (FIG. 52)): tumor stasis | effect on tumor volume (786-O RCC xenograft): modest effects on tumor volume

COc1cc2nccc(Oc3ccc(NC(=O)NC4CC4)c(Cl)c3)c2cc1C(N)=O [lenvatinib]
TGI % [5]: ~ 85% | body weight loss [2]: no treatment-associated body weight loss was observed | pPERK accumulation in 786-O tumors (pPERK in 786-O tumors): induced pPERK accumulation | pPERK levels in 786-O tumors (pPERK in 786-O tumors): dose-dependent increases in pPERK | effect on tumor volume (786-O RCC xenograft): modest effects on tumor volume

CCN(CC)CCNC(=O)c1c(C)[nH]c(/C=C2\C(=O)Nc3ccc(F)cc32)c1C [sunitinib, reference compound]
TGI (A498 RCC xenograft): 80% | sensitivity of Caki-1 to monotherapy (Caki-1 RCC xenograft): far less sensitive | pPERK accumulation in 786-O tumors (pPERK in 786-O tumors): induced pPERK accumulation | pPERK in 786-O xenografts (pPERK in 786-O tumors; sunitinib single agent): increased pPERK | time course of pPERK increase in 786-O xenografts (pPERK in 786-O tumors; sunitinib single agent): increased over time | inhibition of 786-O growth (786-O RCC xenograft; sunitinib single agent 40 mg/kg QD (FIG. 28)): effective inhibitor of 786-O growth
